SMILES strings stand for the structures.

The term melting point denotes the temperature, or range, at which the solid turns liquid.

`COc1ccc(CNC(=O)CC2CSC(=NC3CCCCC3)N2C)cc1.Cl` (stereo not shown) showed a melting point of 193 to 195 °C.
As for `CN1C(=NC2CC2)SCC1CC(=O)Nc1ccc(F)cc1.Cl` (stereo not shown), the figure is 252 to 253.5 °C.
In turn, `CN1C(=NC2CC2)SCC1CC(=O)Nc1cc(Cl)ccc1F.Cl` (stereo not shown) returned a melting point of 233.5 to 234.5 °C.
As for `Cc1ccc(NC(=O)CC2CSC(=NC3CCCCC3)N2C2CC2)cc1.Cl` (stereo not shown), the figure is 216.4 °C; as for `CC1SC(=NC2CCCCC2)N(C)C1CC(=O)Nc1ccccc1.Cl` (stereo not shown), 231 to 234 °C.
To `Br.CN1C(=NC2CCCCCC2)SCC1C(=O)Nc1ccc(Cl)cc1` (stereo not shown) belongs 286.5 °C.
To `CN1C(=NC2CCCCC2)SCC1CC(=O)Nc1ccc2c(c1)OCO2.Cl` (stereo not shown) (hydrate or solvate) [KHG24086, (2-cyclohexylimino-3-methyl-1,3-thiazolidine-4-yl)-N-(3,4-methylenedioxyphenyl)-acetamide hydrochloride] belongs 146 to 147 °C; to `COc1ccc(NC(=O)CC2C(C)SC(=NC3CCCCC3)N2C)cc1` (stereo not shown) [KHG24481, (2-cyclohexylimino-3,5-dimethyl-1,3-thiazolidine-4-yl)-N-(4-methoxyphenyl)-acetamide], 258 to 260 °C.
As for `COc1ccc(NC(=O)CC2C(C)SC(=NC3CCCCCC3)N2C)cc1` (stereo not shown) [KHG24485, (2-cycloheptylimino-3,5-dimethyl-1,3-thiazolidine-4-yl)-N-(4-methoxyphenyl)-acetamide], the melting point lay within 250 to 251 °C.
On to `CN1C(=NC2CCCCCC2)SCC1C(=O)Nc1ccccc1` (stereo not shown) [KHG24622, (2-cycloheptylimino-3-methyl-1,3-thiazolidine-4-yl)-N-phenyl-carboxamide], for which the melting point was 208 °C.
For the compound `CN1C(=NC2CCCCCC2)SCC1C(=O)Nc1ccccc1Cl` (stereo not shown) [KHG24624, (2-cycloheptylimino-3-methyl-1,3-thiazolidine-4-yl)-N-(2-chlorophenyl)-carboxamide], the melting point came to 198.4 °C.
To `CN1C(=NC2CCCCCC2)SCC1C(=O)Nc1cc(F)ccc1F` (stereo not shown) [KHG24625, (2-cycloheptylimino-3-methyl-1,3-thiazolidine-4-yl)-N-(2,5-difluorophenyl)-carboxamide] belongs 184.2 °C; to `CN1C(=NC2CCCCCC2)SCC1C(=O)Nc1ccc(F)cc1` (stereo not shown) [KHG24631, (2-cycloheptylimino-3-methyl-1,3-thiazolidine-4-yl)-N-(4-fluorophenyl)-carboxamide], 169.6 °C; to `CN1C(=NC2CCCCCC2)SCC1C(=O)Nc1cc([N+](=O)[O-])ccc1F` (stereo not shown) [KHG24661, (2-cycloheptylimino-3-methyl-1,3-thiazolidine-4-yl)-N-(2-fluoro-5-nitrophenyl)-carboxamide], 151.1 °C.
Compound `CCc1ccc(NC(=O)C2CSC(=NC3CCCCCC3)N2C)cc1` (stereo not shown) [KHG24664, (2-cycloheptylimino-3-methyl-1,3-thiazolidine-4-yl)-N-(4-ethylphenyl)-carboxamide] gave a melting point of 194 to 195 °C.
To `CN1C(=NC2CCCCCC2)SCC1C(=O)Nc1cc(Cl)cc(Cl)c1` (stereo not shown) [KHG24674, (2-cycloheptylimino-3-methyl-1,3-thiazolidine-4-yl)-N-(3,5-dichlorophenyl)-carboxamide] belongs 191.2 °C; to `CN1C(=NC2CCCCCC2)SCC1C(=O)Nc1ccc(Cl)cc1` (stereo not shown) [KHG24677, (2-cycloheptylimino-3-methyl-1,3-thiazolidine-4-yl)-N-(4-chlorophenyl)-carboxamide], 199.7 °C; to `CC(C)c1ccc(NC(=O)C2CSC(=NC3CCCCCC3)N2C)cc1` (stereo not shown) [KHG24680, (2-cycloheptylimino-3-methyl-1,3-thiazolidine-4-yl)-N-(4-isopropylphenyl)-carboxamide], 207.6 °C.
`CN1C(=NC2CCCCCC2)SCC1C(=O)Nc1ccc(Oc2ccccc2)cc1` (stereo not shown) [KHG24682, (2-cycloheptylimino-3-methyl-1,3-thiazolidine-4-yl)-N-(4-phenoxyphenyl)-carboxamide] showed a melting point of 278.6 °C.
To `CN1C(=NC2CCCCCC2)SCC1C(=O)Nc1ccc(C(C)(C)C)cc1` (stereo not shown) [KHG24684, (2-cycloheptylimino-3-methyl-1,3-thiazolidine-4-yl)-N-(4-t-butylphenyl)-carboxamide] belongs 170.8 °C.
`CN1C(=NC2CCCCCC2)SCC1C(=O)Nc1cc(Cl)ccc1F` (stereo not shown) [KHG24686, (2-cycloheptylimino-3-methyl-1,3-thiazolidine-4-yl)-N-(5-chloro-2-fluorophenyl)-carboxamide] came in with a melting point of 241.2 °C.
As for `CCCCc1ccc(NC(=O)C2CSC(=NC3CCCCCC3)N2C)cc1` (stereo not shown) [KHG24689, (2-cycloheptylimino-3-methyl-1,3-thiazolidine-4-yl)-N-(4-n-butylphenyl)-carboxamide], the figure is 173.3 °C.

(Values after patent US7998989B2, “2-Imino-1,3-thiazoline-based compounds and T-type calcium channel inhibitors containing the same” (Korea Institute of Science and Technology, priority 2007, dated 2011).)
